Experimental data: patent US7230139B2, “Diterpenoid compounds, compositions thereof and their use as anti-cancer or anti-fungal agents” (priority 2004, dated 2007)

How the values were obtained:
[1] = system: SW480 human colon carcinoma cancer cells; experiment: SW480 colon carcinoma xenograft in SCID mice; format: in vivo, CB17 SCID/SCID female mice; settings: i.v. 10 mg/kg once a day for five days
Method: The resultant mice are a model for a human having colon carcinoma cancer.
The SW480 human colon carcinoma cancer cells were maintained in RPMI supplemented with 10% inactivated fetal bovine serum and 1% penicillin-streptomycin-L-Glutamine, under 5% CO2 at 37° C., and passaged twice a week. The cells were grown at a confluency lower than 70% and then collected with Trypsin (Bio-Whittaker, Md., USA). The cells were then centrifuged and washed twice using phosphate buffered saline solution (PBS) and resuspended in PBS at 1×10^6 cells per 100 μl. Viability was examined by staining with Trypan Blue and only flasks with cell viability of greater than 95% were used for in vivo studies.
SW480 cells were transplanted subcutaneously into the flank of female CB 17 SCID/SCID mice. Each mouse was inoculated with a suspension of 1×10^6 tumor cells per 100 μL on day zero. The following five treatment groups of ten mice each were used: (a) a negative control group treated with intravenous (i.v.) injection of vehicle, (b) a group treated with i.v. injection of a Compound 50, (c) a group treated with i.v. injection of a Compound 50a, (d) a group treated with i.v. injection of Compound 50b, (e) a group treated with i.v. injection of Compound 74a.
Treatment started on day twelve after SW480 cells transplantation and Compounds 50, 50a, 50b and 74a were administered i.v. once daily for five consecutive days at a dose of 10, 10, 10 and 50 mg/kg, respectively. Compound 50, 50a and 50b were prepared as a working solution of 1.5 mg/mL in a vehicle solution of 20% Cremaphor EL (Sigma, St. Louis, Miss., USA), and 10% Ethanol. Compound 74a was prepared as a working solution of 5 mg/mL in a vehicle solution of 5% Dextrose (Abbot Laboratories, QC, Canada). The negative control groups were treated with vehicle solution of 20% Cremaphor EL and 10% Ethanol alone.
The mice were weighed and the tumors measured on day 12 and every 2 to 3 days after treatment commenced. Observations continued for 23 days after initial tumor implantation. The changes in body weight and in the calculated tumor volume were plotted (FIGS. 9 and 10). Statistical analysis was performed using GraphPad Prism (GraphPad Software Inc., San Diego, Calif.). Two-way ANOVA was used to determine how the treatment affected tumor growth over time. Following the two-way ANOVA, post-tests were performed using the Benferroni method to determine the statistical difference between the mean tumor-size of the two groups being compared on every day that the tumors were measured.

[2] = system: Candida albicans strain ATCC 10231; experiment: Fungus growth inhibition (OD600); format: cell-based; settings: dilution series, YEP glucose, 30° C.; dose-dependent
Method: Fungus cells were first cultured overnight in 10 mL of YEP glucose-containing medium at 30° C. The following day, 5 μL of the overnight culture (5–6×10^3 cells) was added to 100 μL of YEP glucose-containing medium in a 96-well microtitre plate. To these cultures a dilution series of Compound 50 was added. Compound 50 was prepared as a stock solution in 100% dimethyl sulfoxide (DMSO) at a concentration of 10 mM. Serial dilutions were prepared in distilled water. The final DMSO concentration in each well was 0.5%. Fungus cells were grown at 30° C. and cell growth was monitored by reading the OD600 (optical density at 600 nm) with a Tecan Ultra plate reader (TECAN U.S. Inc. Research Triangle Park, N.C., USA). […] Accordingly, Compound 50, an illustrative Diterpenoid Compound, is useful for inhibiting the growth of a fungus or treating a fungal infection.

[3] = Solubility by filtration and LC/MS; format: physicochemical; settings: in water (printed for Compound 74)
Method: To determine whether a compound is soluble in a solution, the solution was filtered on […] polytetrafluoroethylene filters (Whatman Inc. Clifton, N.J., USA) and the compound concentration in the filtrate was measured by LC/MS and compared to the expected concentration. If the concentration of the compound in the filtrate was equal +/−15% to the expected concentration, the compound was judged to be soluble in the solution.
The detection of Compound 74 or Compound 50 by LC/MS was carried out using the HPLC system that consisted of a Waters Alliance quaternary gradient HPLC pump (Waters, Milford, Mass., USA) and a ZQ2000 single quadrupole mass spectrometer (Waters, Milford, Mass., USA). The column used was XTerra MS C18: 50×2.1 mm, […] column at 20° C. Samples were injected and separated under the following conditions: The mobile phase “A” consisted of 5 mM ammonium formate, 0.1% formic acid in water and mobile phase “B” consisted of 5 mM ammonium formate, 0.1% formic acid in methanol. A linear gradient was applied as follows: 0 to 1 min, 94% “A” and 6% “B”; 1 to 4 min, 6% to 100% “B”; 4 to 8 min 100% “B”; 8 to 9 min, 100% “B” to 6% “B”; 9 to 12 min, 94% “A” and 6% “B”. […] Compounds were detected at m/z equal to their respective molecular weight plus 1.

Compound: COc1ccc2c(c1)C1(C)C=CC(=O)C(C)(C)C1=C(O)C2=O (racemic) [Compound 50]
- Tumor growth compared to vehicle [1]: significant reduction (p<0.001)
- Growth of Candida albicans [2]: significantly inhibited growth
- solubility [3]: < 100 µg/mL
